Assays:
Type in all cases: in vivo
C57/BL/6 mice [1] = assay: Blood glucose level in normal (non-diabetic) mice without glucose challenge; conditions: food deprived 2 h
Description: Female C57/BL/6 mice (25-27-g body weight) were deprived of food for 2 hours and then injected with 4.5-mg/kg of CCcompound1. Blood samples for glucose measurements were taken from the eyes (canthus) just before the administration of CCcompound1 (0 min) as well as 30 min and 120 min after the administration of CCcompound1. Glucose concentrations in whole blood samples were immediately measured with the Fast Glucose C test. The data are the mean±std.dev. of 5 determinations, i.e. one determination with each of the 5 animals. […] In this experiment, the period of food deprivation was short enough that compensatory mechanisms could maintain the blood glucose level near the normal 5-mM value. The condition employed also reflects the human eating habits, because normally there is at least a 2 hours interval between meals and snacks. Thus, with normal subjects under normal conditions, CC compounds are not expected to appreciably change the physiological level of blood glucose level that is about 5-mM on average.

C57/BL/6 mice [2] = assay: Glucose tolerance test with normal mice, PALP and CCcompound1 combined
Description: Female C57/BL/6 mice weighing 24-26-g and fasted for 12 hours before i.p. glucose administration (3 g/kg) were used. None of the animals received any food during the experiment other than glucose. One group of animals was untreated while animals in other groups received subcutaneous (s.c.) injections of 2.0 or 4.5-mg/kg of CCcompound1 either 30 min or 60 min prior to glucose administration as indicated in TABLE 5. Two groups of animals received i.p. injections of 0.4-mg per mouse (˜16-mg per kg) of highly purified PALP 24 hours prior to glucose administration. Purification of PALP was described in detail earlier [Z. Kiss, U.S. Pat. No. 7,048,914, “Placental Alkaline Phosphatase to Control Diabetes]. Animals in one of the PALP treated group also received s.c. injections of 4.5-mg/kg of CCcompound1 30 min prior to glucose administration as indicated in TABLE 5. Blood samples were taken and glucose concentrations were immediately measured as described earlier. Each group included five animals. The data are the mean±std. dev. of 5 determinations, i.e. one determination with each of the five animals. “-min” and “-h” indicates the length of period in minutes and hours, respectively, elapsed between the administration of test agents (first) and glucose (second).

Wistar rats = assay: Glucose tolerance test in starved rats
Description: Male Wistar rats weighing 240-270-g were divided into 3 groups, each group consisting of 6 or 7 animals. To ensure standard conditions animals were starved for 14 hours before the start of the experiment. CCcompound1 and CCcompound3 were injected (i.p.) 30 min prior to injecting 3-g/kg of glucose (i.p.). Blood sugar values of the experimental animals were measured with the Fast Glucose C-test; blood samples were taken from the tail. The data are the mean±std. dev. of 6-7 determinations, i.e. one determination with each of the 6-7 animals in the respective groups.

ob/ob mice = assay: Blood glucose level of normally fed ob/ob obese diabetic mice, daily treatment; conditions: 4.5-mg/kg s.c. once daily
From the text: Adult female leptin-deficient ob/ob obese diabetic inbred specified pathogen free (SPF) hygienic category mice from Charles River VRF1 were used for these experiments. The mice weighed 32-36-g at arrival. The ob/ob obese mouse is an extensively used animal model for the study of non-insulin-dependent-diabetes mellitus (NIDDM). The mutation was propagated in the C57BL/6J (BL/6) inbred strain. Homozygous obese (ob/ob) animals developed hyperglycemia due to insulin resistance, hyperinsulinemia (to compensate for reduced insulin action), and obesity. In these animals gluconeogenesis is enhanced despite their hyperinsulinemic state. The animals were kept in macrolon cages at 22-24° C. and 50-60% humidity, with lighting regimen of 12/12 h light dark. They had free access to tap water and were fed a sterilized standard diet (Charles River VRF1, autoclavable). The animals were cared for according to the “Guiding Principles for the Care and Use for Animals” based upon the Helsinki declaration. The ob/ob mice gained weight rapidly and developed a marked obesity by 5-6 weeks of age. […] When arrived they were 5 weeks old (when the experiment was performed with CCcompound1) or 4.5 weeks old (when the experiment was performed with CCcompound3 and CCcompound19). The treatments started 8 days later in the experiment performed with CCcompound1 and 10 days later in the experiment performed with CCcompound3 and CCcompound19. Experimental groups selected from ob/ob mice were injected subcutaneously (s.c.) at regular intervals once daily for 14 days with CCcompound1 or an analog (CCcompound3 or CCcompound19) each at the dose of 4.5-mg per kg. Control groups were also selected from ob/ob mice that remained untreated during the entire length of the experiment. In the first experiment, for which the data is presented in TABLE 11, blood samples were taken either 45 min or 6 hours after treatments with CCcompound1. In the second experiment, for which the data is presented in TABLE 12, blood samples were taken 45 min after treatments with the analogs of CCcompound1. Blood glucose was determined with the Fast Glucose C test. Both the untreated and CC compound-treated groups included 5 animals. The data are the mean±std. dev.

Cc1c(OCC(O)C[N+](C)(C)C)cc2c(=O)c3ccccc3sc2c1C.[Cl-] (stereo not shown) [CCcompound 1, [3-(3,4-Dimethyl-9-oxo-9H-thioxanthen-2-yloxy)-2-hydroxypropyl]trimethyl-ammonium chloride] showed a Blood glucose (C57/BL/6 mice [1]; 0 min, just before 4.5-mg/kg) of 5.1 ± 0.5 mM, a Blood glucose (C57/BL/6 mice [1]; 30 min after 4.5-mg/kg) of 4.9 ± 0.4 mM and a Blood glucose (C57/BL/6 mice [1]; 120 min after 4.5-mg/kg) of 4.9 ± 0.6 mM. For the same compound, the Blood glucose (C57/BL/6 mice [2]; CC1 2 mg/kg s.c. −30 min, 0 min) was 3.7 ± 0.4 mM, the Blood glucose (C57/BL/6 mice [2]; CC1 2 mg/kg s.c. −30 min, 30 min) was 6.6 ± 0.4 mM and the Blood glucose (C57/BL/6 mice [2]; CC1 2 mg/kg s.c. −30 min, 60 min) was 4.9 ± 0.6 mM. For the same compound, the Blood glucose (C57/BL/6 mice [2]; CC1 2 mg/kg s.c. −30 min, 120 min) was 4.4 ± 0.5 mM, the Blood glucose (C57/BL/6 mice [2]; CC1 2 mg/kg s.c. −60 min, 0 min) was 3.9 ± 0.6 mM and the Blood glucose (C57/BL/6 mice [2]; CC1 2 mg/kg s.c. −60 min, 30 min) was 6.7 ± 0.5 mM. The Blood glucose (C57/BL/6 mice [2]; CC1 2 mg/kg s.c. −60 min, 60 min) was 5.2 ± 0.3 mM, the Blood glucose (C57/BL/6 mice [2]; CC1 2 mg/kg s.c. −60 min, 120 min) was 4.6 ± 0.3 mM and the Blood glucose (C57/BL/6 mice [2]; CC1 4.5 mg/kg s.c. −30 min, 0 min) was 3.6 ± 0.4 mM. For the same compound, the Blood glucose (C57/BL/6 mice [2]; CC1 4.5 mg/kg s.c. −30 min, 30 min) was 6.2 ± 0.4 mM, the Blood glucose (C57/BL/6 mice [2]; CC1 4.5 mg/kg s.c. −30 min, 60 min) was 4.5 ± 0.3 mM and the Blood glucose (C57/BL/6 mice [2]; CC1 4.5 mg/kg s.c. −30 min, 120 min) was 4.2 ± 0.4 mM. The Blood glucose (C57/BL/6 mice [2]; CC1 4.5 mg/kg s.c. −60 min, 0 min) was 3.8 ± 0.5 mM, the Blood glucose (C57/BL/6 mice [2]; CC1 4.5 mg/kg s.c. −60 min, 30 min) was 6.4 ± 0.3 mM and the Blood glucose (C57/BL/6 mice [2]; CC1 4.5 mg/kg s.c. −60 min, 60 min) was 4.5 ± 0.5 mM. For the same compound, the Blood glucose (C57/BL/6 mice [2]; CC1 4.5 mg/kg s.c. −60 min, 120 min) was 4.1 ± 0.6 mM, the Blood glucose (Wistar rats; rats starved 14 h, i.p. 30 min prior to glucose 3-g/kg i.p., 0 min) was 5.03 ± 0.44 mM and the Blood glucose (Wistar rats; rats, i.p. 30 min prior to glucose, 30 min) was 9.21 ± 0.45 mM. It also gave a Blood glucose (Wistar rats; rats, i.p. 30 min prior to glucose, 60 min) of 5.73 ± 0.39 mM, a Blood glucose (Wistar rats; rats, i.p. 30 min prior to glucose, 90 min) of 5.11 ± 0.42 mM and a Blood glucose (Wistar rats; rats, i.p. 30 min prior to glucose, 120 min) of 5.37 ± 0.36 mM. For the same compound, the Glucose level (ob/ob mice; 45 min after treatment, day 1) was 6.2 ± 0.4 mM, the Glucose level (ob/ob mice; 45 min after treatment, day 4) was 7.4 ± 0.3 mM and the Glucose level (ob/ob mice; 45 min after treatment, day 7) was 8.4 ± 0.2 mM. The Glucose level (ob/ob mice; 45 min after treatment, day 11) was 9.2 ± 0.3 mM, the Glucose level (ob/ob mice; 45 min after treatment, day 14) was 10.2 ± 0.3 mM and the Glucose level (ob/ob mice; 6 hours after treatment, day 4) was 11.3 ± 0.7 mM. It also gave a Glucose level (ob/ob mice; 6 hours after treatment, day 7) of 13.8 ± 0.4 mM, a Glucose level (ob/ob mice; 6 hours after treatment, day 11) of 15.7 ± 0.4 mM and a Glucose level (ob/ob mice; 6 hours after treatment, day 14) of 17.5 ± 0.4 mM. It also gave a Glucose level (ob/ob mice; blood 6 hours after treatment, day 1) of 9.3 ± 0.4 mM.

Source: US20090317372A1, “SMALL MOLECULES FOR THE REDUCTION OF HIGH BLOOD GLUCOSE LEVEL” (priority 2008, published 2009)
